{"source": "paper PMC5128008", "about": "“Antimicrobial activity and stability of the D-amino acid substituted derivatives of antimicrobial peptide polybia-MPI” (AMB Express, 2016)", "system": "all tested bacterial and fungal strains", "assay": "MIC, broth microdilution, summary over the panel", "format": "cell-based", "details": "summary of Table 1, \"almost in the range\"", "experimental": "The minimal inhibitory concentration (MIC) of the peptides was measured in triplicate by the standard broth microdilution method (Peterson et al. [1980]; Wang et al. [2012]). In brief, bacteria/fungi were cultured overnight to mid-logarithmic-phase in Mueller–Hinton broth (MHB)/Sabouraud dextrose broth. The cultures were diluted to a final concentration of 2 × 10^4 cfu/ml in fresh Mueller–Hinton broth (MHB)/Sabouraud dextrose broth. Each well of 96-well propylene microtitre plates was filled with 100 µl cell suspension and 100 μl peptide solution of twofold diluted serially. And the final concentrations of peptide mixtures ranged from 1 to 256 µM. Controls were done without peptides. After 18 h of incubation at 37 °C (bacteria)/35 °C (fungi), the minimal inhibitory concentration (MIC) of the peptides was evaluated by visible turbidity in each well.", "note": "Where a SMILES comes first, the peptide text is derived from it. [ ]: non-standard residue; d: D form."}
{"smiles": "CC[C@@H](C)[C@@H](N)C(=O)N[C@H](CC(=O)O)C(=O)N[C@H](Cc1c[nH]c2ccccc12)C(=O)N[C@H](CCCCN)C(=O)N[C@H](CCCCN)C(=O)N[C@H](CC(C)C)C(=O)N[C@H](CC(C)C)C(=O)N[C@H](CC(=O)O)C(=O)N[C@H](C)C(=O)N[C@H](C)C(=O)N[C@H](CCCCN)C(=O)N[C@H](CCC(N)=O)C(=O)N[C@@H](C(=O)N[C@H](CC(C)C)C(N)=O)[C@H](C)CC", "note": "[D-MPI] (H-[dI][dD][dW][dK][dK][dL][dL][dD][dA][dA][dK][dQ][dI][dL]-NH2)", "values": [{"measurement": "MIC values, range over all tested bacterial and fungal strains", "value": "8 to 64", "unit": "µM"}]}
